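1) Cells in 96-well plates. 2) Compound, 48 h, 5 concentrations. 3) Linear interpolation between surrounding doses. 4) Unreached endpoint = highest concentration. The concentration for full growth arrest is given as TGI.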
Columns and labels:
Test in all cases: NCI anticancer screen, dose series, 48 h
786-0 renal = tested on: 786-0 renal
A549 NSCLC = tested on: A549 NSCLC
ACHN renal = tested on: ACHN renal
CAKI-1 renal = tested on: CAKI-1 renal
CCRF-CEM leukemia = tested on: CCRF-CEM leukemia
COLO 205 colon = tested on: COLO 205 colon
DLD-1 colon = tested on: DLD-1 colon
DMS 273 small cell lung = tested on: DMS 273 small cell lung
EKVX NSCLC = tested on: EKVX NSCLC
HCC-2998 colon = tested on: HCC-2998 colon
HCT-116 colon = tested on: HCT-116 colon
HCT-15 colon = tested on: HCT-15 colon
HL-60(TB) leukemia = tested on: HL-60(TB) leukemia
HOP-18 NSCLC = tested on: HOP-18 NSCLC
HOP-62 NSCLC = tested on: HOP-62 NSCLC
HOP-92 NSCLC = tested on: HOP-92 NSCLC
HT29 colon = tested on: HT29 colon
IGROV1 ovarian = tested on: IGROV1 ovarian
K-562 leukemia = tested on: K-562 leukemia
KM12 colon = tested on: KM12 colon
KM20L2 colon = tested on: KM20L2 colon
LOX IMVI melanoma = tested on: LOX IMVI melanoma
LXFL 529 NSCLC = tested on: LXFL 529 NSCLC
M14 melanoma = tested on: M14 melanoma
M19-MEL melanoma = tested on: M19-MEL melanoma
MALME-3M melanoma = tested on: MALME-3M melanoma
MOLT-4 leukemia = tested on: MOLT-4 leukemia
NCI-H226 lung = tested on: NCI-H226 lung
NCI-H23 lung = tested on: NCI-H23 lung
NCI-H460 lung = tested on: NCI-H460 lung
NCI-H522 lung = tested on: NCI-H522 lung
OVCAR-3 ovarian = tested on: OVCAR-3 ovarian
OVCAR-4 ovarian = tested on: OVCAR-4 ovarian
OVCAR-5 ovarian = tested on: OVCAR-5 ovarian
OVCAR-8 ovarian = tested on: OVCAR-8 ovarian
RPMI-8226 leukemia = tested on: RPMI-8226 leukemia
RXF 393 renal = tested on: RXF 393 renal
SF-268 CNS = tested on: SF-268 CNS
SF-295 CNS = tested on: SF-295 CNS
SF-539 CNS = tested on: SF-539 CNS
SK-MEL-2 melanoma = tested on: SK-MEL-2 melanoma
SK-MEL-28 melanoma = tested on: SK-MEL-28 melanoma
SK-MEL-5 melanoma = tested on: SK-MEL-5 melanoma
SK-OV-3 ovarian = tested on: SK-OV-3 ovarian
SN12C renal = tested on: SN12C renal
SNB-19 CNS = tested on: SNB-19 CNS
SNB-75 CNS = tested on: SNB-75 CNS
SNB-78 CNS = tested on: SNB-78 CNS
SR leukemia = tested on: SR leukemia
SW-620 colon = tested on: SW-620 colon
TK-10 renal = tested on: TK-10 renal
U251 CNS = tested on: U251 CNS
UACC-257 melanoma = tested on: UACC-257 melanoma
UACC-62 melanoma = tested on: UACC-62 melanoma
UO-31 renal = tested on: UO-31 renal
A498 renal = tested on: A498 renal
XF 498 CNS = tested on: XF 498 CNS

O=C(c1ccccc1)c1nnc(C(=O)c2ccccc2)nn1
TGI (786-0 renal): > 344 µM
TGI (A549 NSCLC): > 344 µM
TGI (ACHN renal): > 344 µM
TGI (CAKI-1 renal): > 344 µM
TGI (CCRF-CEM leukemia): > 344 µM
TGI (COLO 205 colon): > 344 µM
TGI (DLD-1 colon): > 344 µM
TGI (DMS 273 small cell lung): > 344 µM
TGI (EKVX NSCLC): > 344 µM
TGI (HCC-2998 colon): > 344 µM
TGI (HCT-116 colon): > 344 µM
TGI (HCT-15 colon): > 344 µM
TGI (HL-60(TB) leukemia): > 344 µM
TGI (HOP-18 NSCLC): > 344 µM
TGI (HOP-62 NSCLC): > 344 µM
TGI (HOP-92 NSCLC): > 344 µM
TGI (HT29 colon): > 344 µM
TGI (IGROV1 ovarian): > 344 µM
TGI (K-562 leukemia): > 344 µM
TGI (KM12 colon): > 344 µM
TGI (KM20L2 colon): > 344 µM
TGI (LOX IMVI melanoma): > 344 µM
TGI (LXFL 529 NSCLC): > 344 µM
TGI (M14 melanoma): > 344 µM
TGI (M19-MEL melanoma): > 344 µM
TGI (MALME-3M melanoma): > 344 µM
TGI (MOLT-4 leukemia): > 344 µM
TGI (NCI-H226 lung): > 344 µM
TGI (NCI-H23 lung): > 344 µM
TGI (NCI-H460 lung): > 344 µM
TGI (NCI-H522 lung): > 344 µM
TGI (OVCAR-3 ovarian): > 344 µM
TGI (OVCAR-4 ovarian): > 344 µM
TGI (OVCAR-5 ovarian): > 344 µM
TGI (OVCAR-8 ovarian): > 344 µM
TGI (RPMI-8226 leukemia): > 344 µM
TGI (RXF 393 renal): 261 µM
TGI (SF-268 CNS): > 344 µM
TGI (SF-295 CNS): > 344 µM
TGI (SF-539 CNS): > 344 µM
TGI (SK-MEL-2 melanoma): > 344 µM
TGI (SK-MEL-28 melanoma): > 344 µM
TGI (SK-MEL-5 melanoma): > 344 µM
TGI (SK-OV-3 ovarian): > 344 µM
TGI (SN12C renal): > 344 µM
TGI (SNB-19 CNS): > 344 µM
TGI (SNB-75 CNS): > 344 µM
TGI (SNB-78 CNS): > 344 µM
TGI (SR leukemia): 128 µM
TGI (SW-620 colon): > 344 µM
TGI (TK-10 renal): > 344 µM
TGI (U251 CNS): > 344 µM
TGI (UACC-257 melanoma): > 344 µM
TGI (UACC-62 melanoma): > 344 µM
TGI (UO-31 renal): > 344 µM

COc1ccc(C2=CC3CCC2C3)cc1 (stereo not drawn)
TGI (786-0 renal): > 100 µM
TGI (A498 renal): > 100 µM
TGI (A549 NSCLC): > 100 µM
TGI (ACHN renal): > 100 µM
TGI (CAKI-1 renal): > 100 µM
TGI (CCRF-CEM leukemia): > 100 µM
TGI (COLO 205 colon): > 100 µM
TGI (DLD-1 colon): > 100 µM
TGI (DMS 273 small cell lung): > 100 µM
TGI (EKVX NSCLC): > 100 µM
TGI (HCT-116 colon): > 100 µM
TGI (HCT-15 colon): > 100 µM
TGI (HL-60(TB) leukemia): > 100 µM
TGI (HOP-18 NSCLC): > 100 µM
TGI (HOP-62 NSCLC): > 100 µM
TGI (HOP-92 NSCLC): > 100 µM
TGI (HT29 colon): > 100 µM
TGI (IGROV1 ovarian): > 100 µM
TGI (K-562 leukemia): > 100 µM
TGI (KM12 colon): > 100 µM
TGI (LOX IMVI melanoma): > 100 µM
TGI (LXFL 529 NSCLC): > 100 µM
TGI (M14 melanoma): > 100 µM
TGI (MALME-3M melanoma): > 100 µM
TGI (MOLT-4 leukemia): > 100 µM
TGI (NCI-H23 lung): > 100 µM
TGI (NCI-H460 lung): > 100 µM
TGI (NCI-H522 lung): > 100 µM
TGI (OVCAR-3 ovarian): > 100 µM
TGI (OVCAR-4 ovarian): > 100 µM
TGI (OVCAR-5 ovarian): > 100 µM
TGI (OVCAR-8 ovarian): > 100 µM
TGI (RPMI-8226 leukemia): > 100 µM
TGI (RXF 393 renal): > 100 µM
TGI (SF-268 CNS): > 100 µM
TGI (SF-295 CNS): > 100 µM
TGI (SF-539 CNS): > 100 µM
TGI (SK-MEL-2 melanoma): > 100 µM
TGI (SK-MEL-28 melanoma): > 100 µM
TGI (SK-MEL-5 melanoma): > 100 µM
TGI (SK-OV-3 ovarian): > 100 µM
TGI (SN12C renal): > 100 µM
TGI (SNB-19 CNS): > 100 µM
TGI (SNB-75 CNS): > 100 µM
TGI (SNB-78 CNS): > 100 µM
TGI (SR leukemia): > 100 µM
TGI (SW-620 colon): > 100 µM
TGI (TK-10 renal): > 100 µM
TGI (U251 CNS): > 100 µM
TGI (UACC-257 melanoma): > 100 µM
TGI (UACC-62 melanoma): > 100 µM
TGI (UO-31 renal): > 100 µM
TGI (XF 498 CNS): > 100 µM

Source: PubChem BioAssay (NCI)
